Values quoted from earlier work as cited in US20200268817A1, “CANNABINOID COMPOSITIONS, METHODS OF MANUFACTURE AND USE THEREOF” (priority 2016, published 2020).
Like-named read-outs stand apart in the source and are kept apart here.

How the values were obtained:
CB2 = CB2 (Homo sapiens, UniProt P34972)
schizophrenic patients = conditions: over six weeks
[1] = tested on: patients with acute paranoid schizophrenia; conditions: for psychotic symptoms (Brief Psychiatric Rating Scale, Positive and Negative Syndrome Scale): after 2 and 4 weeks, 42 patients
[2] = tested on: synovial cells isolated from mice
prostaglandin E2 = conditions: more potent than aspirin
[3] = tested on: peripheral blood mononuclear cells; conditions: added to peripheral blood mononuclear cells in vitro
patients [4] = conditions: low cannabinoid dosages; vs placebo
patients [5] = conditions: Phase III study (31)
advanced cancer patients = conditions: patients receiving chemotherapy; compared to placebo
[6] = tested on: advanced cancer patients with substantial appetite loss; conditions: 469 advanced cancer patients; p=0.0001

Chain of CB2 (P34972 whole entry, species assumed): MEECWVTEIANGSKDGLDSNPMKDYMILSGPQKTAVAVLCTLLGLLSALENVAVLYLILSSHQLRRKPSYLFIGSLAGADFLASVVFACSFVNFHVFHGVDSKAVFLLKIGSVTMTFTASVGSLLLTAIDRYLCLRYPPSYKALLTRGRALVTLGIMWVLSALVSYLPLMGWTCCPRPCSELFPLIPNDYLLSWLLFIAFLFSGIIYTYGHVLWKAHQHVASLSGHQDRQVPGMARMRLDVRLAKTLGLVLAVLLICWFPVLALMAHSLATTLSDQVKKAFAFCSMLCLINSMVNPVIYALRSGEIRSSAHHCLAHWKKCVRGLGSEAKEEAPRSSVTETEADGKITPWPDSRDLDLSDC

For `C=C1CC/C=C(\C)CC[C@@H]2[C@@H]1CC2(C)C` [Beta caryophyllene, Beta-caryophyllene], the “TNF alpha and IL-lb expression” value (human peripheral blood) is listed as “inhibits” and the “binding to CB2” value (CB2) is listed as “binds”.

In the case of `C=C(C)[C@@H]1CCC(C)=C[C@H]1c1c(O)cc(CCCCC)cc1O` [CBD, Cannabidiol], the “positive and cognitive symptoms” value (schizophrenic patients; add-on to anti-psychotic, 88 patients) is given as “improved positive and cognitive symptoms”, the adverse effects (schizophrenic patients) is given as “no severe adverse effects” and the “side effects (extrapyramidal symptoms, increase in prolactin, weight gain) compared to amisulpride” value ([1]; 4 week trial) is given as “significantly fewer side effects”. For the same compound, the “psychotic symptoms (Brief Psychiatric Rating Scale, Positive and Negative Syndrome Scale)” value [1] was “significant decrease of psychotic symptoms”, the “release of TNF-alpha” value [2] was “suppressed” and the “affinity for CB2 receptor” value (CB2) was “very low affinity”.

In the case of `COc1cc(-c2cc(=O)c3c(O)c(C/C=C(\C)CCC=C(C)C)c(O)cc3o2)ccc1O` [Cannaflavin A], the “potency as inhibitor of prostaglandin E2 relative to aspirin” value (prostaglandin E2) is given as 30 ×.

In the case of `O=c1cc(-c2ccc(O)c(O)c2)oc2cc(O)cc(O)c12` [Luteolin], the “production of TNFa, IL-lb, and IL-6” value [3] is listed as “suppress”.

For `CCCCCc1cc(O)c2c(c1)OC(C)(C)[C@@H]1CCC(C)=C[C@@H]21` [THC, Tetrahydrocannabinol], the “differences between the groups in improvement in appetite or weight-gain” value (patients [4]) is given as “No significant differences”, the “start of psychotropic effects” value (inhaled) is given as “within seconds to a few minutes” and the “time to maximum psychotropic effects” value (inhaled) is given as 15 to 30 min. For the same compound, the “time until psychotropic effects taper off” value (inhaled) was 2 to 3 h, the “delay until psychotropic effects set in” value (oral ingestion) was 30 to 90 min and the “time to maximum psychotropic effects” value (oral ingestion) was 120 to 180 min. For the same compound, the “duration of psychotropic effects” value (oral ingestion, depending on dose and specific effect) was 4 to 12 h.

In the case of `CCN1CCCC1CNC(=O)c1cc(S(=O)(=O)CC)c(N)cc1OC` (centres unmarked) [amisulpride], the “psychotic symptoms (Brief Psychiatric Rating Scale, Positive and Negative Syndrome Scale)” value [1] is given as “significant decrease of psychotic symptoms”.

For `CCCCCc1cc(O)c2c(c1)OC(C)(C)[C@@H]1CCC(C)=C[C@@H]21` [dronabinol], the “true response (weight gain of >=10% from baseline weight)” value (patients [5]) is listed as 3%, the “taste and smell perception, appetite and caloric intake” value (advanced cancer patients) is listed as “improvement” and the “patients reporting appetite improvement” value [6] is listed as 49%. For the same compound, the “patients with decreased nausea” value (cancer patients; cancer patients, placebo 7%) was 20%, the “patients with increased appetite” value (cancer patients; cancer patients, placebo 8%) was 38% and the “patients who gained >=2 kg” value (cancer patients; placebo 10.5%, did not reach significance) was 22%.

In the case of `CC(=O)O[C@]1(C(C)=O)CC[C@H]2[C@@H]3C=C(C)C4=CC(=O)CC[C@]4(C)[C@H]3CC[C@@]21C` [megestrol acetate], the “true response (weight gain of >=10% from baseline weight)” value (patients [5]) is given as 11% and the “patients reporting appetite improvement” value [6] is given as 75%.
